Source: the supplement of paper PMC11451515

What was measured:
Experiment in all cases: AUC of viability dose-response curve (% viability x log10 dose units); higher = less sensitive
Conditions in all cases: 48 h
NOMO1 = tested on: NOMO1
How it was run: (§1)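 Over 48 h at 37°C, leukemia cells in 1536-well plates (500 or 1000 cells/well), adapted to each medium, received library compounds in DMSO at 11 threefold doses from 47 μM to 0.79 nM. CellTiter-Glo One luminescence, normalised per plate to DMSO and cell-free wells, was fitted by a four-parameter log-logistic function of log10 dose. The area under the curve was then integrated by trapezoidal rule, after scaling curves above full viability and removing those that failed quality control.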

P12-Ichikawa = tested on: P12-Ichikawa
How it was run: as §1

SEM cells = tested on: SEM cells
How it was run: as §1

[1] = RPMI 5 mM glucose + 10% dialyzed FBS

Row | Compound | AUC of viability dose-response curve (NOMO1; HPLM + 10% dialyzed FBS) | AUC of viability dose-response curve (NOMO1; RPMI 5 mM glucose + 10% FBS) | AUC of viability dose-response curve (NOMO1; [1]) | AUC of viability dose-response curve (P12-Ichikawa; HPLM + 10% dialyzed FBS) | AUC of viability dose-response curve (P12-Ichikawa; RPMI 5 mM glucose + 10% FBS) | AUC of viability dose-response curve (P12-Ichikawa; [1]) | AUC of viability dose-response curve (SEM cells; HPLM + 10% dialyzed FBS) | AUC of viability dose-response curve (SEM cells; RPMI 5 mM glucose + 10% FBS) | AUC of viability dose-response curve (SEM cells; [1])
1 | C[C@]12COC(=O)C[C@@H]1CC[C@@H]1[C@@H]2CC[C@@]2(C)[C@H]1CC[C@]2(C)O | 472 | 443 | 443 | 457 | 463 | 471 | 451 | 457 | 447
2 | CCN1CCN(c2ccc(Nc3cc(N(C)C(=O)Nc4c(Cl)c(OC)cc(OC)c4Cl)ncn3)cc2)CC1 | 372 | 395 | 399 | 429 | 428 | 423 | 347 | 316 | 351
3 | Cc1ccccc1C(=O)c1ccc(Nc2ccc(Br)cc2N)cc1Cl | 467 | 466 | 455 | 454 | 461 | 441 |  |  | 
4 | C[N]1C=C(C=N1)C2=C3\C=N/NC(=O)C4=C3C(=CC(=C4)NC(=O)[C@H](N)C5CCCCC5)[NH]2 | 403 | 390 | 384 | 395 | 387 | 371 | 309 | 334 | 283
5 | O=C1NC(=O)/C(=C/c2ccc3nccc(-c4ccncc4)c3c2)S1 | 293 | 351 | 296 | 341 | 308 | 317 | 289 | 290 | 290
6 | CC[S+](=O)([O-])c1cccc(-c2cc(C(=O)NC3CCN(C)CC3)c(C)c3[nH]c4ncc(C)cc4c23)c1 | 354 | 385 | 359 | 298 | 290 | 320 | 312 | 285 | 297
7 | NNCCc1ccccc1 | 433 | 450 | 467 | 465 | 464 | 470 | 444 | 466 | 468
8 | COCC1(CO)C(=O)C2CCN1CC2 (stereo unspecified) | 435 | 446 | 462 | 413 | 414 | 421 |  |  | 
